Active and inactive are the calls of the source.

The results in this text go back to ChEMBL document CHEMBL3991601, “The target landscape of clinical kinase drugs” (Science, 2017).

Assay [1] has as its target AP2-associated protein kinase 1 (Homo sapiens, UniProt Q2M2I8).
In assay [2] the target is T1, ADP/ATP translocase 2 (Homo sapiens, UniProt P05141).
T1 sequence (P05141 whole entry): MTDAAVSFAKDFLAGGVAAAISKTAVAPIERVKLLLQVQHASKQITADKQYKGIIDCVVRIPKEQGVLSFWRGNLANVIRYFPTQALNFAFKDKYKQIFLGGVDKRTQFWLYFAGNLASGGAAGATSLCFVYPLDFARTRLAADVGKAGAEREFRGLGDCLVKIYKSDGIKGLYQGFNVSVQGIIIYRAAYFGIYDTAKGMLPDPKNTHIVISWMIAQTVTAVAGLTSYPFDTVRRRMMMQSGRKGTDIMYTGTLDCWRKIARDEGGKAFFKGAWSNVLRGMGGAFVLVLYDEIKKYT

Assay [3] has as its target Mitogen-activated protein kinase kinase kinase kinase 5 (Homo sapiens, UniProt Q9Y4K4).
For assay [4], the target named is T2, Cyclin-G-associated kinase (Homo sapiens, UniProt O14976).
T2 sequence (O14976 whole entry): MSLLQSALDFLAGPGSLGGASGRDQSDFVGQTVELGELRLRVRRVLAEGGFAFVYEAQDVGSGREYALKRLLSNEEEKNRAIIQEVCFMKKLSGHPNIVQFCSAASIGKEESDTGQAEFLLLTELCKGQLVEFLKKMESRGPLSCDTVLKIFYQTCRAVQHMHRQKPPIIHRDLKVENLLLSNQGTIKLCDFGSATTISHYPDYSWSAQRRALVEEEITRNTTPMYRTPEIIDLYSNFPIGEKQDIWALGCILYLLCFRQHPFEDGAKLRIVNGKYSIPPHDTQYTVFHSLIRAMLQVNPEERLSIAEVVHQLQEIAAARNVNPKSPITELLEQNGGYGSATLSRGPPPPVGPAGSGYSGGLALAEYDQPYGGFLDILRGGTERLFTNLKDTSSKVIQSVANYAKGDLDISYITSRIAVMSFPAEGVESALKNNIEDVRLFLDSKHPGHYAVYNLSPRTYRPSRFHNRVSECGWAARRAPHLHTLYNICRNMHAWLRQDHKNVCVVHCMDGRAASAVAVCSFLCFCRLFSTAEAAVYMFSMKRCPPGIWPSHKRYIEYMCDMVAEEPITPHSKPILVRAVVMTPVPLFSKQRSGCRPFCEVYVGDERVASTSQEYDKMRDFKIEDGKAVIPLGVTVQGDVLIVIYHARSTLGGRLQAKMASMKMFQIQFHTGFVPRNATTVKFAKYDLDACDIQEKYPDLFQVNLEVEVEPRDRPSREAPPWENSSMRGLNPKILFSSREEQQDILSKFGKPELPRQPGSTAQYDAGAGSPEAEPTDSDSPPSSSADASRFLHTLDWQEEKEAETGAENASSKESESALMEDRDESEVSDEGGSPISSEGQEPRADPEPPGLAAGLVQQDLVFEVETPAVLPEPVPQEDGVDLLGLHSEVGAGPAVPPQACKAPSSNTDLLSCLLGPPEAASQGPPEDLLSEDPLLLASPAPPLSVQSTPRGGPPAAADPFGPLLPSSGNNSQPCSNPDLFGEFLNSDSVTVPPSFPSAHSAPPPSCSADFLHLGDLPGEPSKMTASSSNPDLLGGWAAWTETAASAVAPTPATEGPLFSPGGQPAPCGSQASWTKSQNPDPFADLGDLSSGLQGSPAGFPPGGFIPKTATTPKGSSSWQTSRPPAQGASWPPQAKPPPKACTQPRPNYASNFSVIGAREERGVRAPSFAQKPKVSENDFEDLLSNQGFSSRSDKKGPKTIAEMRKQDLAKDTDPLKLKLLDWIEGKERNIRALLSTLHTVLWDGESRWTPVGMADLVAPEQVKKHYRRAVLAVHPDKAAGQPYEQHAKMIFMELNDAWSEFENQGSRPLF

The target in assay [5] is Serine/threonine-protein kinase MRCK alpha (Homo sapiens, UniProt Q5VT25).
Sequence of Serine/threonine-protein kinase MRCK alpha (Q5VT25 whole entry, canonical isoform): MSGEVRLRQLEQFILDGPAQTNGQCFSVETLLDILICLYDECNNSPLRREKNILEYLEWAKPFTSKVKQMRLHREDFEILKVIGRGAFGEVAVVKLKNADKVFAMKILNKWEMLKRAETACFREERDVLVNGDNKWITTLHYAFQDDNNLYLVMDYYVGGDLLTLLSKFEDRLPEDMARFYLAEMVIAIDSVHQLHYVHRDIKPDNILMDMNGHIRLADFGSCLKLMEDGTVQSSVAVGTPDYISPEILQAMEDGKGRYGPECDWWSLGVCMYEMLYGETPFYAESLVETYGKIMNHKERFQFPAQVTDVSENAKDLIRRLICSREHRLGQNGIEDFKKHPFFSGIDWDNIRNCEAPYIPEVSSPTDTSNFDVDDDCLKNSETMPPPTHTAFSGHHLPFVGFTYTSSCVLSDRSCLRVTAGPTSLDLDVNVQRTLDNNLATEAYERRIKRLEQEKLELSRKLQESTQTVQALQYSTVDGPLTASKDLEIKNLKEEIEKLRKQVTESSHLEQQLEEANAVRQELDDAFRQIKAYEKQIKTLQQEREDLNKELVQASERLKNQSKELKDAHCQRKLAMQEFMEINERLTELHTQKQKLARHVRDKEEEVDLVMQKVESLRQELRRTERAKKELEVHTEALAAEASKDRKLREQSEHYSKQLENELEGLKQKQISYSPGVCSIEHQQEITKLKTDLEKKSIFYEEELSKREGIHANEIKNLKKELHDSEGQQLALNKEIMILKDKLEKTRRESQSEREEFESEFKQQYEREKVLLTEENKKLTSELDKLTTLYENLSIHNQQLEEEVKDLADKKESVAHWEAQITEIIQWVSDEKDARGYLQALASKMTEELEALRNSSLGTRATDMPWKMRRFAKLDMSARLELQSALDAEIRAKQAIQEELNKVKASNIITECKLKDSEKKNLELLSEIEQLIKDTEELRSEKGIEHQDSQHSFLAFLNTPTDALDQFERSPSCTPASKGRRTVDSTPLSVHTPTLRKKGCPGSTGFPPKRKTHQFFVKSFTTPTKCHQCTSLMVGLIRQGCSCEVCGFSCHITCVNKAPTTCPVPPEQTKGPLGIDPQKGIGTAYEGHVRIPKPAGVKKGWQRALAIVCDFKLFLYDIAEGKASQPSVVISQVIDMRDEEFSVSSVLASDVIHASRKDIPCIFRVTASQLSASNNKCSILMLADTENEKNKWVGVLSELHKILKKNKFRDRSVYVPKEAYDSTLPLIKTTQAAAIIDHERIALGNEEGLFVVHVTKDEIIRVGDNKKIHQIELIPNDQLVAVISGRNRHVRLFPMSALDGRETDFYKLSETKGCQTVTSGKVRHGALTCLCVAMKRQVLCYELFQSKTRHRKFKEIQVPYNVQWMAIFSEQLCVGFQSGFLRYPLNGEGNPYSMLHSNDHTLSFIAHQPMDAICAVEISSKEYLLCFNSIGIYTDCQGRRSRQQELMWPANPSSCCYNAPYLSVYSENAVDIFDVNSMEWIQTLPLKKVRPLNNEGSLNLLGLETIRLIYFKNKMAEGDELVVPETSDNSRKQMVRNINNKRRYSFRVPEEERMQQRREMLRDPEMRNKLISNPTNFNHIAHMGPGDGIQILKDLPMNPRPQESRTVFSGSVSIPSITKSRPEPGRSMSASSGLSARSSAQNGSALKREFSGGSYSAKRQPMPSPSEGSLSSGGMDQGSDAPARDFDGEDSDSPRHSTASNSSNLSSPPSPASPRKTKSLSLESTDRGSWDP
Assay [6] addresses Casein kinase I isoform epsilon (Homo sapiens, UniProt P49674).
For assay [7], the target named is T3, Tyrosine--tRNA ligase, cytoplasmic (Homo sapiens, UniProt P54577).
T3 sequence (P54577 whole entry): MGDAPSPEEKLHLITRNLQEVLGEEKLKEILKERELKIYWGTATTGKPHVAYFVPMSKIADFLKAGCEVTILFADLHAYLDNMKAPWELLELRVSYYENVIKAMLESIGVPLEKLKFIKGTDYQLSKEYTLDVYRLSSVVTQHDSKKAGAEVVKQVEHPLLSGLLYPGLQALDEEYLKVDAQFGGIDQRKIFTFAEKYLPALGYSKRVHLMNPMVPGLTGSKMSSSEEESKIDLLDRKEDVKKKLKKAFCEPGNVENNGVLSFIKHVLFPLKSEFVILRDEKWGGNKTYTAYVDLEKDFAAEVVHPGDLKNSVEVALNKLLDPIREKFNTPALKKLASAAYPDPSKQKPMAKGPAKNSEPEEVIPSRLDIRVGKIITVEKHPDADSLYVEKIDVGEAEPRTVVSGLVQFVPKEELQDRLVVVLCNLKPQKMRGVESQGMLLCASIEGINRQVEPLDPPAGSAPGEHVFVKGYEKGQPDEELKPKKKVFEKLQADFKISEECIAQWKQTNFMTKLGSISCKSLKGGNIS

The target in assay [8] is T4, Very long-chain specific acyl-CoA dehydrogenase, mitochondrial (Homo sapiens, UniProt P49748).
T4 sequence (P49748 whole entry): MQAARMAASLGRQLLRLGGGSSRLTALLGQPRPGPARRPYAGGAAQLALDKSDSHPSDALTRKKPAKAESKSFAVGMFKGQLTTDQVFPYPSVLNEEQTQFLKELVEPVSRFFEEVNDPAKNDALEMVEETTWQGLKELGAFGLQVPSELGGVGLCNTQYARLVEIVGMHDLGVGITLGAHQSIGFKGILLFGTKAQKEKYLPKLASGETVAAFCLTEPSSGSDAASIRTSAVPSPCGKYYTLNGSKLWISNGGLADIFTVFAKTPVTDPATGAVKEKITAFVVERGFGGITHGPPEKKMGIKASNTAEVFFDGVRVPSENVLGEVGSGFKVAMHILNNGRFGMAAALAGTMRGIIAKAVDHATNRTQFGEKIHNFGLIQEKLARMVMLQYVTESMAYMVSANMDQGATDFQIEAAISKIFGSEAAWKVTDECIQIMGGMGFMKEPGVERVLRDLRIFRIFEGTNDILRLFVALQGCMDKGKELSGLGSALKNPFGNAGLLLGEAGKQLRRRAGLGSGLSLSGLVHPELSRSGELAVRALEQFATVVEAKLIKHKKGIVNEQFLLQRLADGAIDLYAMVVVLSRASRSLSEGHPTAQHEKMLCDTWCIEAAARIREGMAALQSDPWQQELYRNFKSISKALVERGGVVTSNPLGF
Note: in the data inactive means no Kd found up to 30 µM.

Sequence of Casein kinase I isoform epsilon (P49674 whole entry, canonical isoform): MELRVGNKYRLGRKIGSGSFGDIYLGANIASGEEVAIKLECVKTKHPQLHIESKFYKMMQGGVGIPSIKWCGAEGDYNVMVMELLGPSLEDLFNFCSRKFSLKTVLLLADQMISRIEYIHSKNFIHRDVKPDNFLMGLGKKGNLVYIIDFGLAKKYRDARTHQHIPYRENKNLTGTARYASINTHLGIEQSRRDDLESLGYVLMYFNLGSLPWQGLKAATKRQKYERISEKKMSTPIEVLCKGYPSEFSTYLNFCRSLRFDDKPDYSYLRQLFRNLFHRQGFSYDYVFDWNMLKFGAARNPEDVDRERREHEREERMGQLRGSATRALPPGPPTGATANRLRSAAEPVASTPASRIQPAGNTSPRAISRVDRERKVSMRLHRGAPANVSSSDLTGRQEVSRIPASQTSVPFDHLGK
Sequence of Mitogen-activated protein kinase kinase kinase kinase 5 (Q9Y4K4 whole entry): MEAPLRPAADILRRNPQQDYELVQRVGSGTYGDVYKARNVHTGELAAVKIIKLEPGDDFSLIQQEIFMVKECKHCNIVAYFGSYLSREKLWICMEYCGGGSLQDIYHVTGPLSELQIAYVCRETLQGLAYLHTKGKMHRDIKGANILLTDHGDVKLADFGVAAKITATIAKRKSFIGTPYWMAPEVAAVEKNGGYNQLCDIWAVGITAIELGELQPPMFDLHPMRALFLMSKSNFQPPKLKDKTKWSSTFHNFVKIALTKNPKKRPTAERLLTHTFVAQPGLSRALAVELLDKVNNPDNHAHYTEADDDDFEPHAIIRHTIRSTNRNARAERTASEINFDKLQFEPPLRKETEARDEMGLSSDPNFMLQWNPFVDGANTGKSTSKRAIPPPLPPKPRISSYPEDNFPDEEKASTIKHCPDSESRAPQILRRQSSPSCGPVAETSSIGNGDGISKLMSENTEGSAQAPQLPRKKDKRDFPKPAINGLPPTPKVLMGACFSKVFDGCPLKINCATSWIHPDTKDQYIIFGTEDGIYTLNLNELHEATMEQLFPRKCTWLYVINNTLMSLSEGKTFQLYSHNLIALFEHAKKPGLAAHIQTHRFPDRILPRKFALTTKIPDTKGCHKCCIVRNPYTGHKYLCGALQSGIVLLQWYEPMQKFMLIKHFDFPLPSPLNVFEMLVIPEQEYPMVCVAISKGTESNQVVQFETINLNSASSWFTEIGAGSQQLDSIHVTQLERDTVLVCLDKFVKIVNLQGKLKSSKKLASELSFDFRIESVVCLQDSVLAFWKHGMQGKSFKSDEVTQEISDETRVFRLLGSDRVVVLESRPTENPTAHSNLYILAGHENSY
Sequence of AP2-associated protein kinase 1 (Q2M2I8 whole entry): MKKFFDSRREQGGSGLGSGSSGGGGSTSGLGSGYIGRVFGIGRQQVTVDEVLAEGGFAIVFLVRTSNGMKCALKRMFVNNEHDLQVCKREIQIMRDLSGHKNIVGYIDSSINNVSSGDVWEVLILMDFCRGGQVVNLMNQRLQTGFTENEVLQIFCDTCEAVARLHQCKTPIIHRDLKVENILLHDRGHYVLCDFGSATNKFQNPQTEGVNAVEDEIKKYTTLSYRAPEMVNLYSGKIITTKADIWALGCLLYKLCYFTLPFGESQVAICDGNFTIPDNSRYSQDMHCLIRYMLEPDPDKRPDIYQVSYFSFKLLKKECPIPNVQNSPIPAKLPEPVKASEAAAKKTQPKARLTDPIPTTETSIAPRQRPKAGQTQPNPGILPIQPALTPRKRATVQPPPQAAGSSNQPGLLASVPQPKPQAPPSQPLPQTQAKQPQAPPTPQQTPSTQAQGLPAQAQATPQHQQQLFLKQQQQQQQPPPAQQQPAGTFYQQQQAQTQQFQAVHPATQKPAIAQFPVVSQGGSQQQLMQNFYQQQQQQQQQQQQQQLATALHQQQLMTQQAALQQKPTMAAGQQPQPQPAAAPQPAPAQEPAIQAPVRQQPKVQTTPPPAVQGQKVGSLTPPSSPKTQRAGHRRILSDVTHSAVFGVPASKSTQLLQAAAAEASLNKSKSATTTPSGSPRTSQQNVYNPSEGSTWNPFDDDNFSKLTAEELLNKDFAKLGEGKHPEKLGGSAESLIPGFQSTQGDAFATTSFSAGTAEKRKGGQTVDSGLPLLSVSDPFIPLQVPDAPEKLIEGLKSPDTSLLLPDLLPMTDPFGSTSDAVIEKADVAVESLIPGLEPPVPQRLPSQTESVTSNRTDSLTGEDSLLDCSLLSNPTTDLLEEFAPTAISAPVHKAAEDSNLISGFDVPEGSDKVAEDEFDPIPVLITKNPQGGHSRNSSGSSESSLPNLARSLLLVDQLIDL

In the case of `C[C@@H](Nc1cc(F)cc(F)c1)c1cc(C(=O)N(C)C)cc2c(=O)cc(N3CCOCC3)oc12` [AZD-8186], the Kd in assay [1], in assay [2], in assay [3], in assay [4], in assay [5] and in assay [6] was > 30 µM (inactive) in each case. The Kd in assay [7] and in assay [8] was > 30 µM (inactive) throughout.
Regarding `C[C@@H](c1ccc2nccn2c1)n1nnc2ncc(-c3cnn(C)c3)nc21` [SAVOLITINIB], the Kd in assay [1], in assay [2], in assay [3], in assay [4], in assay [5] and in assay [6] was > 30 µM (inactive) each time. Besides, the Kd in assay [7] and in assay [8] was > 30 µM (inactive) each time.
Consider `CN1CCC(COc2cnc(-c3cccc(Cn4nc(-c5cccc(C#N)c5)ccc4=O)c3)nc2)CC1` [TEPOTINIB], for which the Kd in assay [1], in assay [2], in assay [3], in assay [4], in assay [5] and in assay [6] was > 30 µM (inactive) in each case. Moreover, the Kd in assay [7] and in assay [8] was > 30 µM (inactive) throughout.
Turning to `CCc1cnn2c(NCc3ccc[n+]([O-])c3)cc(N3CCCC[C@H]3CCO)nc12` [DINACICLIB], the Kd in assay [1], in assay [2], in assay [3], in assay [4], in assay [5] and in assay [6] was > 30 µM (inactive) throughout. Also, the Kd in assay [7] and in assay [8] was > 30 µM (inactive) throughout.
With `CNC(=O)c1cc(Oc2ccc(NC(=O)Nc3ccc(Cl)c(C(F)(F)F)c3)c(F)c2)ccn1` [REGORAFENIB], the Kd in assay [1], in assay [2], in assay [3], in assay [4], in assay [5] and in assay [6] was > 30 µM (inactive) each time. Further, the Kd in assay [7] and in assay [8] was > 30 µM (inactive) in each case.
For `CCCS(=O)(=O)Nc1ccc(F)c(C(=O)c2c[nH]c3ncc(-c4ccc(Cl)cc4)cc23)c1F` [VEMURAFENIB], the Kd in assay [1] is > 30 µM (inactive); in assay [2], > 30 µM (inactive); in assay [3], 1.8 µM (active); in assay [4], > 30 µM (inactive); in assay [5] it was > 30 µM (inactive); in assay [6], > 30 µM (inactive). The Kd in assay [7] and in assay [8] was > 30 µM (inactive) in each case.
`N[C@@H]1CCCN(c2c(/C=C3\SC(=O)NC3=O)cccc2-c2ccccc2)C1`: the Kd in assay [1], in assay [2], in assay [3], in assay [4], in assay [5] and in assay [6] was > 30 µM (inactive) throughout. The Kd in assay [7] and in assay [8] was > 30 µM (inactive) each time.
Regarding `O=C(O)[C@]1(Cc2cccc(Nc3nccs3)n2)CC[C@@H](Oc2cccc(Cl)c2F)CC1` [MK-5108], the Kd in assay [1], in assay [2], in assay [3], in assay [4], in assay [5] and in assay [6] was > 30 µM (inactive) throughout. Also, the Kd in assay [7] and in assay [8] was > 30 µM (inactive) throughout.
Turning to `COc1cc(OC)c(/C=C/S(=O)(=O)Cc2ccc(OC)c(NCC(=O)O)c2)c(OC)c1` [RIGOSERTIB], the Kd in assay [1], in assay [2], in assay [3], in assay [4], in assay [5] and in assay [6] was > 30 µM (inactive) throughout. Moreover, the Kd in assay [7] and in assay [8] was > 30 µM (inactive) throughout.
